From patent US8680155B2, “Synthesis and antitumor activity of novel bis(benzylidene-benzenamine)disulfides” (Kaohsiung Medical University, priority 2011, dated 2014)

Assays:
[1] = test system: SK-MEL-5; experiment: MTT cytotoxicity, SK-MEL-5 melanoma; type: cell-based; conditions: SK-MEL-5, MTT
Method: (§1) For confirming the cytotoxicity of bis(benzylidene-benzenamine)disulfides of the invention on various cancer cells, the well known MTT (3-(4,5-dimethylthiazol-2-yl)-2,5-diphenyltetrazolium bromide) colorimetric assay in this art was performed, and the method was not detailedly described herein. Please refer to Table 3, compound 12 was selected from compounds 1 to 24 to proceed cytotoxicity experiment.

[2] = test system: LOX MVI; experiment: MTT cytotoxicity, LOX MVI melanoma; type: cell-based
Method: as §1

[3] = test system: NCI-H226; experiment: MTT cytotoxicity, NCI-H226 non-small cell lung cancer; type: cell-based
Method: as §1

[4] = test system: T-47D; experiment: MTT cytotoxicity, T-47D breast cancer; type: cell-based
Method: as §1

[5] = test system: selected cancer cell lines; experiment: MTT cytotoxicity, mean over cancer cell lines; type: cell-based; conditions: read-out: mean 50% growth inhibition (GI50)
Method: as §1

[6] = test system: MALME-3M; experiment: MTT cytotoxicity, MALME-3M melanoma; type: cell-based
Method: as §1

[7] = test system: HOP-92; experiment: MTT cytotoxicity, HOP-92 non-small cell lung cancer; type: cell-based; conditions: HOP-92, MTT
Method: as §1

[8] = test system: SNB-75; experiment: MTT cytotoxicity, SNB-75 central nervous system cancer; type: cell-based; conditions: SNB-75, MTT
Method: as §1

[9] = test system: HCT-15; experiment: MTT cytotoxicity, HCT-15 colon cancer; type: cell-based; conditions: HCT-15, MTT
Method: as §1

[10] = test system: IGROV1; experiment: MTT cytotoxicity, IGROV1 ovarian cancer; type: cell-based
Method: as §1

[11] = test system: H1335; experiment: MTT survival, H1335 lung cancer; type: cell-based, human; conditions: H1335, 10 μM
Method: (§2) Next, in vitro cytotoxicity of the multiple compounds in various cell lines was evaluated, which also was performed using MTT colorimetric assay. […] Comparing breast cancer cells MCF-7 with other cancer cells, most selected compounds had higher inhibition activity to MCF-7 cells. Therefore, breast cancer cells MCF-7 were chosen to be the research target in the following experiments.

[12] = test system: A549; experiment: MTT survival, A549 lung cancer; type: cell-based, human; conditions: A549, 10 μM
Method: as §2

[13] = test system: Cal-27; experiment: MTT survival, Cal-27 oral cancer; type: cell-based, human; conditions: Cal-27, 10 μM
Method: as §2

[14] = test system: A2058; experiment: MTT survival, A2058 melanoma; type: cell-based, human; conditions: A2058, 10 μM
Method: as §2

[15] = test system: breast cancer cells MCF-7; experiment: Cell cycle analysis by flow cytometry (PI staining); type: cell-based, human; conditions: MCF-7, 5 μM, 24 hours; control 11.54%
Method: This experiment was performed by treating breast cancer cells MCF-7 with compounds, and then cell cycle was analyzed using flow cytometry known by the skilled person in the art. Firstly, breast cancer cells MCF-7 were treated with the prepared compounds (5 μM) for 24 hours and stained with propidium iodide (PI). Approximately 10000 cells from each sample were analyzed with FACScan flow cytometer and software. […] The sub-G1 DNA Peaks for compounds 4, 5, 7, 18, 21, 23 and 24 were 20.64%, 17.92%, 26.22%, 11.95%, 19.85%, 4.35% and 33.89% respectively (data not shown), while the sub-G1 DNA peak for control (without any drug treatment) was 11.54%.

[16] = test system: Ca-922; experiment: MTT survival, Ca-922 oral cancer; type: cell-based, human; conditions: Ca-922, 10 μM
Method: as §2

[17] = test system: MCF-7; experiment: MTT survival, MCF-7 breast cancer; type: cell-based, human; conditions: MCF-7, 10 μM
Method: as §2

[18] = test system: 293T; experiment: MTT survival, 293T kidney cancer; type: cell-based, human
Method: as §2

[19] = test system: A375; experiment: MTT survival, A375 melanoma; type: cell-based, human; conditions: A375, 10 μM
Method: as §2

[20] = test system: phosphorylated p38 protein; experiment: Phosphorylated p38 expression by immunoblotting in MCF-7 cells; type: cell-based, human; conditions: MCF-7, 24-hour treatment, different concentrations
Method: P38 protein in p38 mitogen-activated protein kinase (MAPK) pathway was chosen to be the index of apoptosis in this experiment, and phosphorylated p38 expression was evaluated using immunoblotting assay known by the skilled person in the art. Cellular protein was harvested after the 24-hour treatment of compound 24 on MCF-7 cells, and then resolved with sodium dodecyl sulfate (SDS)-polyacrylamide gel electrophoresis and developed using immunoblotting. […] In combination with aforementioned experimental results, compound 24 and other compounds could induce cancer cell apoptosis.

[21] = test system: melanoma cells B16 tumor; experiment: Antitumor activity in B16 tumor-bearing mice; type: in vivo; conditions: injection into sole of feet, B16 in C57BL/6 mice
Method: Firstly, a total of 5×10^6 melanoma cells B16 were inoculated into female C57BL/6 mice (about 19˜21 grams/7 to 9 weeks). […] When tumor reached about 4 mm×4 mm in diameter, mice were separated into groups. Each group had four mice in each experiment. Tumor volume were majored by calipers each two days after compound injection into each sole of feet of mice or without compound injection (control), and tumor volume was calculated by following formula: Tumor volume=[…] (Equation I)

[22] = test system: mouse melanoma cells B16; experiment: MTT growth inhibition on murine melanoma cells (FIG. 1); type: cell-based; conditions: 10 μM, 48 hours
Method: In addition, for recognizing whether the prepared disulfides had cytotoxicity to normal cells and murine cells, human dermal fibroblasts and mouse melanoma cells B16 were selected as the models using MTT colorimetric assay. First, fibroblasts or B16 cells were seeded in 96-well culture plate at 2500 cells per well and cultivated overnight until cell attachment. Each compound (10 μM) was added into the culture media in triplicate and incubated for 48 hours, and finally MTT reagent was added into each well to detect absorbance.
Please refer to FIG. 1, which illustrates the growth inhibition of various compounds to human dermal fibroblast and B16 cells.

Row | Structure (SMILES) | Survival (% control) of compound (10 μM) [11] [% control] | Survival (% control) of compound (10 μM) [12] [% control] | Survival (% control) of compound (10 μM) [13] [% control] | Survival (% control) of compound (10 μM) [14] [% control] | sub-G1 DNA peak [15] [%] | Survival (% control) of compound (10 μM) [16] [% control] | Survival (% control) of compound (10 μM) [17] [% control] | Survival (% control) of compound (10 μM) [18] [% control] | Survival (% control) of compound (10 μM) [19] [% control] | further results
1 | Cc1cc([N+](=O)[O-])ccc1N=C(SSC(=Nc1ccc([N+](=O)[O-])cc1C)c1ccc(C(F)(F)F)cc1)c1ccc(C(F)(F)F)cc1 [Compound 12] |  |  |  |  |  |  |  |  |  | GI50 [1]: 262 nM; GI50 [2]: 304 nM; GI50 [3]: 427 nM; GI50 [4]: 221 nM; GI50 [5]: 372 nM; GI50 [6]: 252 nM; GI50 [7]: 175 nM; GI50 [8]: 141 nM; GI50 [9]: 388 nM; GI50 [10]: 217 nM
2 | Cc1ccc([N+](=O)[O-])cc1N=C(SSC(=Nc1cc([N+](=O)[O-])ccc1C)c1ccc(F)cc1)c1ccc(F)cc1 [Compound 21] | 80.6 ± 0.08 | 62.1 ± 0.12 | 76.6 ± 0.20 | 76.3 ± 0.15 | 19.85 | 66.7 ± 0.13 | 13.8 ± 0.60 | 32.8 ± 0.52 | 81.1 ± 0.10 | 
3 | Cc1c(N=C(SSC(=Nc2cccc([N+](=O)[O-])c2C)c2ccc(F)cc2)c2ccc(F)cc2)cccc1[N+](=O)[O-] [Compound 18] | 70.0 ± 0.13 | 75.5 ± 0.08 | 94.9 ± 0.07 | 95.9 ± 0.02 | 11.95 | 79.4 ± 0.09 | 33.1 ± 0.47 | 71.1 ± 0.23 | 91.5 ± 0.04 | 
4 | O=[N+]([O-])c1ccc(C(=Nc2ccc(C(F)(F)F)cc2)SSC(=Nc2ccc(C(F)(F)F)cc2)c2ccc([N+](=O)[O-])cc2)cc1 [Compound 4] | 66.0 ± 0.14 | 65.4 ± 0.11 | 102.5 ± 0.06 | 92.6 ± 0.05 | 20.64 | 80.1 ± 0.08 | 59.6 ± 0.28 | 64.6 ± 0.28 | 84.6 ± 0.08 | 
5 | Cc1c(N=C(SSC(=Nc2cccc([N+](=O)[O-])c2C)c2ccc(C(F)(F)F)cc2)c2ccc(C(F)(F)F)cc2)cccc1[N+](=O)[O-] [Compound 24] | 26.0 ± 0.32 | 53.4 ± 0.15 | 73.5 ± 0.22 | 34.9 ± 0.42 | 33.89 | 45.5 ± 0.22 | 8.6 ± 0.64 | 24.2 ± 0.59 | 59.5 ± 0.22 | phosphorylation of p38 protein [20]: dependent on the concentration; tumor volume over time ([21]; 2 mg/kg): not markedly increased; tumor volume compared to the untreated group ([21]; 4 mg/kg): significantly suppressed; growth inhibition / apoptosis in murine melanoma B16 [22]: significantly made
6 | Cc1ccc(N=C(SSC(=Nc2ccc(C)c([N+](=O)[O-])c2)c2ccc(C(F)(F)F)cc2)c2ccc(C(F)(F)F)cc2)cc1[N+](=O)[O-] [Compound 17] | 81.4 ± 0.08 | 76.9 ± 0.07 | 107.1 ± 0.08 |  |  | 82.1 ± 0.07 |  | 75.3 ± 0.21 | 103.2 ± 0.02 | 
7 | Cc1cc(C(=Nc2ccccc2)SSC(=Nc2ccccc2)c2ccc([N+](=O)[O-])c(C)c2)ccc1[N+](=O)[O-] [Compound 1] | 69.8 ± 0.13 | 71.5 ± 0.09 | 100.9 ± 0.09 |  |  | 80.8 ± 0.08 |  | 76.5 ± 0.19 | 90.3 ± 0.05 | 
8 | Cc1cc(C(=Nc2ccc(Cl)cc2)SSC(=Nc2ccc(Cl)cc2)c2ccc([N+](=O)[O-])c(C)c2)ccc1[N+](=O)[O-] [Compound 7] | 67.4 ± 0.13 | 78.7 ± 0.07 | 101.7 ± 0.09 | 99.6 ± 0.02 | 26.22 | 96.2 ± 0.02 | 51.7 ± 0.34 | 71.2 ± 0.23 | 92.4 ± 0.04 | 
9 | O=[N+]([O-])c1cc(N=C(SSC(=Nc2ccc(F)c([N+](=O)[O-])c2)c2ccc(C(F)(F)F)cc2)c2ccc(C(F)(F)F)cc2)ccc1F [Compound 23] | 80.2 ± 0.08 | 64.4 ± 0.12 | 92.4 ± 0.16 | 93.2 ± 0.04 | 4.35 | 65.8 ± 0.14 | 57.1 ± 0.30 | 57.8 ± 0.33 | 94.3 ± 0.03 | growth inhibition / apoptosis in murine melanoma B16 [22]: significantly made
10 | O=[N+]([O-])c1ccc(C(=Nc2ccc(Cl)cc2)SSC(=Nc2ccc(Cl)cc2)c2ccc([N+](=O)[O-])cc2)cc1 [Compound 5] | 75.8 ± 0.10 | 82.4 ± 0.06 | 100.1 ± 0.07 | 97.5 ± 0.02 | 17.92 | 79.4 ± 0.08 | 54.3 ± 0.32 | 70.9 ± 0.24 | 79.4 ± 0.11 | 
